Patent publication US10093675B2, “6,8-disubstituted-9-(heterocyclyl)purines, compositions containing these derivatives and their use in cosmetic and medicinal applications” (USTAV EXPERIMENTALNI BOTANIKY AV CR, V.V.I., priority 2014, dated 2018)
Read-outs that look alike come from different tables or passages of the source.

Tests used:
[1] = tested on: breast carcinoma cell line MCF-7; assay: In vitro cytotoxic activity (Calcein AM), MCF-7; type: cell-based, human; details: read-out: Cell line tested/IC50 (μmol/L) MCF7
Text: (§1) Because toxic compounds negatively influence metabolic processes of cells, many standard cytotoxicity assays are based on measurement of metabolisation rate of various artificial substrates. Resulting product is then quantified, for example, by means of spectrometry. The assays can be easily modified for use in 96-well plates. For evaluation of cytotoxicity of the […] of this invention, a microtiter assay based on quantification of metabolisation of Calcein AM was used. The assay is widely used in drug screening programs and in chemosensitivity testing. In live cells, Calcein AM is enzymatically hydrolysed and accumulation of resulting calcein is manifested by green fluorescence.
(§2) The following human cell lines were used for routine screening of the compounds: normal diploid fibroblasts BJ, T-lymphoblastic leukemia cell line CEM, promyelocytic leukemia cell line HL-60, erytroid leukemia cell line K-562, breast carcinoma cell line MCF-7, osteosarcoma cell line HOS and melanoma cell line G-361. The cells were maintained in Nunc/Corning 80 cm^2 plastic tissue culture flasks and cultured in cell culture medium (DMEM with 5 g/l glucose, 2 mM glutamine, 100 U/ml penicillin, 100 mmg/ml streptomycin, 10% fetal calf serum and sodium bicarbonate). The cell suspensions were prepared and diluted according to the particular cell type and the expected target cell density (2.500-30.000 cells per well based on cell growth characteristics) and pipetted (80 μl) into 96-well plates. Inoculates were allowed a pre-incubation period of 24 hours at 37° C. and 5% CO2 for stabilization. Tested compound was added in total volume of 20 μl of water at time zero. Usually, test compound was evaluated at six 3-fold dilutions. In routine testing, the highest concentration tested was 100 μM, but it could have been adjusted because of limited solubility of a compound. All drug concentrations were tested in triplicates.
(§3) Incubations of cells with the test compounds lasted for 72 hours at 37° C., in 5% CO2 atmosphere and 100% humidity. At the end of incubation period Calcein AM in PBS was added into final concentration of 1 μg/ml. After another 1 hour of incubation fluorescence (FD) was measured with the Labsystem FIA Reader Fluoroscan Ascent (UK). Growth inhibition (GI) was estimated using the following equitation: GI=(mean FDdrug exposed wells−mean FDblank)/(mean FDcontrol wells−mean FDblank)×100%. The GI50 value, the drug concentration causing 50% reduction of Calcein AM conversion, was calculated from the obtained dose response curves.

[2] = tested on: detached leaves of Triticum aestivum cv. Hereward; assay: Membrane lipid peroxidation (MDA, TBA method) in detached wheat leaves during dark senescence; type: in vivo; details: four days in the dark, Control 18.9 (±2.2)
Experimental: A typical symptom associated with senescence as a direct consequence of increased reactive oxygen species is lipid peroxidation. Therefore the levels of MDA, a decomposition product of lipid peroxidation, were measured in detached wheat leaves that were exposed to the prepared novel derivatives and kinetin for four days in the dark as described in Example 8. MDA levels were measured using a thiobarbituric acid (TBA) method. In detail, 100 mg of fresh plant material was homogenized by high speed shaking in a ball mill (MM301, Retsch, Germany) with 1 mL of 80% methanol. The crude extract was centrifuged at 10,000×g for 5 min, and 100 μL aliquot of supernatant was vortexed with 100 μL of 0.5% (w/v) TBA containing 0.1% (w/v) trichloroacetic acid, and the resulting solution was then incubated for 30 min at 95° C. The samples were quickly cooled on ice and recentrifuged for 5 min at 1000×g. The absorbance of supernatant was measured at 532 nm with background subtraction at 600 nm and the amount of MDA-TBA complex was calculated from the coefficient of absorbance 155 mM^−1cm^−1.
Seeds of winter wheat, Triticum aestivum cv. Hereward, were washed under running water for 24 hours and then sown on vermiculite soaked with Knop's solution. They were placed in the grown chamber at 25° C. with a 16/8 hours light period at […]. After 7 days, the first leaf was fully developed and the second leaf had started to grow. A tip section of the first leaf, approximately 35 mm long, was removed from 5 seedlings and trimmed slightly to a combined weight of 100 mg. The basal ends of the five leaf tips were placed in the wells of a microtiter polystyrene plate containing […] of a cytokinin solution each. The entire plate was inserted into a plastic box lined with paper tissues soaked in distilled water to prevent leaf sections from drying out. After 96 hours incubation in the dark at 25° C., the leaves were removed and chlorophyll extracted by heating at 80 C for 10 min in 5 ml of 80% ethanol (v/v). The sample volume was then restored to 5 ml by the addition of 80% ethanol (v/v). The absorbance of the extract was recorded at 665 nm. In addition, chlorophyll extracts from fresh leaves and leaf tips incubated in deionized water were measured. From the obtained data, the concentration with highest activity was selected for each compound tested. Relative activity of the compound at this concentration was calculated (see Table 6 below). The activity obtained for 10^−4 M kinetin (Kin) was set as 100%. The values shown are means of five replicates and the whole experiment was repeated twice.

[3] = tested on: Human diploid fibroblast BJ; assay: In vitro cytotoxic activity (MTT); type: cell-based; details: 72 hours incubation; concentration causing 20% decrease in mitochondrial dehydrogenase activity
Experimental: MTT (metabolic tetrazolium toxicity) assay is a standard colorimetric assay for evaluation of cytotoxicity. Mitochondrial dehydrogenase activity converts yellow MTT into violet formazan which is measured by means of spectrometry.
Human diploid fibroblast BJ (passage 18-22) were seeded into 96-well plate (5.000 cells per well). After 6 hours cultivation medium (DMEM with 5 g/l glucose, 2 mM glutamine, 100 U/ml penicillin, 100 mmg/ml streptomycin, 10% fetal calf serum and sodium bicarbonate) was replaced with the cultivation medium containing test compounds in concentration range of 0-200 µM. Highest concentration was adjusted if the solubility of the compound was limiting. Every concentration was tested in pentaplicate. MTT was added to the cells after 72 hours incubation (final concentration 0.5 mg/ml) and incubation continued for another 3 hours. MTT was solubilised by DMSO and absorbance at 570 nm was measured. Growth inhibition (GI) was estimated using the following equitation: GI=(mean A drug exposed wells−mean Ablank/mean Acontrol wells−mean Ablank)×100%. The GI20 value, the drug concentration causing 20% decrease in mitochondrial dehydrogenase activity, was calculated from the obtained dose response curves.

[4] = tested on: cytokinin-dependent tobacco callus Nicotiana tabacum L. cv. Wisconsin 38; assay: Plant cell division: growth of cytokinin-dependent tobacco callus; type: cell-based; details: for Activity (%); (s.d.): relative activity at concentration with highest activity, 10^−6 M kinetin set at 100%; for Concentration with highest activity (mol/l): tobacco callus fresh weight increase after four weeks, tested 10^−8 M to 10^−4 M
[5] = tested on: normal diploid fibroblasts BJ; assay: In vitro cytotoxic activity (Calcein AM), BJ; type: cell-based, human; details: 72 hours, read-out: Cell line tested/IC50 (μmol/L) BJ
Text: as §1, §2, §3

[6] = tested on: osteosarcoma cell line HOS; assay: In vitro cytotoxic activity (Calcein AM), HOS; type: cell-based, human; details: 72 hours, read-out: Cell line tested/IC50 (μmol/L) HOS
Text: as §1, §2, §3

[7] = tested on: T-lymphoblastic leukemia cell line CEM; assay: In vitro cytotoxic activity (Calcein AM), CEM; type: cell-based, human; details: 72 hours, read-out: Cell line tested/IC50 (μmol/L) CEM
Text: as §1, §2, §3

melanoma cell line G-361 = assay: In vitro cytotoxic activity (Calcein AM), G-361; type: cell-based, human; details: read-out: Cell line tested/IC50 (μmol/L) G-361
Text: as §1, §2, §3

[8] = tested on: excised wheat leaf tips (Triticum aestivum cv. Hereward); assay: Senescence inhibition on winter wheat leaf segments (retention of chlorophyll); type: in vivo; details: 10^−4 mol/L; 96 hours in the dark; activity of kinetin set at 100%
Summary of the method: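 First-leaf tips from 7-day-old wheat seedlings stood with their bases in test solution for 96 h in the dark at 25° C. Chlorophyll was then extracted in hot 80% ethanol and read at 665 nm. Activity at each compound's best concentration is relative to 10^−4 M kinetin (100%), as means of five replicates.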

[9] = tested on: erytroid leukemia cell line K-562; assay: In vitro cytotoxic activity (Calcein AM), K-562; type: cell-based, human; details: read-out: Cell line tested/IC50 (μmol/L) K-562
Text: as §1, §2, §3

[10] = Radical scavenging activity determined by ORAC (Oxygen Radical Absorbance Capacity); type: biochemical; details: Mean ± SD (n = 3); net area under the curve relative to trolox, equimolar basis
Experimental: The ability of compounds to scavenge free radicals in vitro was determined by Oxygen Radical Absorbance Capacity (ORAC) method. Fluorescein (100 μL, […]) and 25 μL of compound solution were added into each working well in a 96-well microplate preincubated at 37° C. Thereafter, 25 μL of 250 mM AAPH was quickly added, microplate was shaken for 5 s and the fluorescence (Ex. 485 nm, Em. 510 nm) was read every 3 min over 90 min by using microplate reader Infinite 200 (TECAN, Switzerland). The net area under the curve was used to express antioxidant activity relative to trolox which was used as a standard.

[11] = tested on: human diploid fibroblasts (HDF cells; HDF25, HDF45, HDF80); assay: Inhibition of human cell aging: senescent cells by beta-galactosidase staining; type: cell-based
Experimental: In this example, human diploid fibroblasts (HDF cells of various passage levels: passage 25—designated HDF25; passage 45—designated HDF45; passage 80—designated HDF80) were stained for beta-galactosidase activity. The medium used for the cell cultivation was removed the cells were washed twice in […], and fixed in 2-3 ml of fixing solution comprised of a 2% formaldehyde and 0.2% glutaraldehyde in PBS. The cells were incubated at room temperature for 5 minutes, and then washed twice with PBS. The cells were subsequently incubated at 37° C. […] In this experiment, senescent cells, but no other cells were stained blue due to the action of beta-galactosidase on the substrate.

SMILES: C/C(=C\CNc1ncnc2c1nc(Cl)n2C1CCCCO1)CO (stereo not drawn) [Compound 5, (E)-8-Chloro-6-(4-hydroxy-3-methylbut-2-en-1-ylamino)-9-(tetrahydropyran-2-yl)-9H-purine]
- IC50 ([1]; Homo sapiens, MCF7, 72 hours): > 50 µmol/L
- MDA (nmol/g FW) [2]: 13.2 (±1.5) nmol/g FW
- GI20 [3]: >100 µM
- Activity (%); (s.d.) [4]: 124 (±6) %
- IC50 ([5]; Homo sapiens, Fibroblast): > 50 µmol/L
- IC50 ([6]; Homo sapiens): > 50 µmol/L
- IC50 ([7]; Homo sapiens): > 50 µmol/L
- IC50 (melanoma cell line G-361; Homo sapiens, G-361, 72 hours): > 50 µmol/L
- Activity (%) (s.d.), retention of chlorophyll [8]: 118 (±5) %
- IC50 ([9]; Homo sapiens, K562, 72 hours): > 50 µmol/L

SMILES: Oc1cccc(CNc2ncnc3c2nc(Cl)n3C2CCCCO2)c1 (stereo not drawn) [Compound 9]
- IC50 ([1]; 72 hours): > 50 µmol/L
- MDA (nmol/g FW) [2]: 12.4 (±1.3) nmol/g FW
- GI20 [3]: >100 µM
- Activity (%); (s.d.) [4]: 108 (±3) %
- Concentration with highest activity (mol/l) [4]: 10^−6-10^−4 mol/l
- IC50 [5]: > 50 µmol/L
- IC50 [6]: > 50 µmol/L
- IC50 [7]: > 50 µmol/L
- IC50 (melanoma cell line G-361; 72 hours): > 50 µmol/L
- Activity (%) (s.d.), retention of chlorophyll [8]: 115 (±4) %
- IC50 ([9]; 72 hours): > 50 µmol/L

SMILES: Oc1cccc(CNc2ncnc3c2nc(Br)n3C2CCCCO2)c1 (stereo not drawn) [Compound 29]
- IC50 ([1]; 72 hours): > 50 µmol/L
- MDA (nmol/g FW) [2]: 12.3 (±1.4) nmol/g FW
- GI20 [3]: >100 µM
- Activity (%); (s.d.) [4]: 112 (±3) %
- Concentration with highest activity (mol/l) [4]: 10^−6-10^−4 mol/l
- IC50 [5]: > 50 µmol/L
- IC50 [6]: > 50 µmol/L
- IC50 [7]: > 50 µmol/L
- IC50 (melanoma cell line G-361; 72 hours): > 50 µmol/L
- Activity (%) (s.d.), retention of chlorophyll [8]: 117 (±2) %
- IC50 ([9]; 72 hours): > 50 µmol/L

SMILES: Ic1nc2c(NCc3ccccc3)ncnc2n1C1CCCCO1 (stereo not drawn) [Compound 46, 8-Iodo-6-benzylamino-9-(tetrahydropyran-2-yl)-9H-purine]
- MDA (nmol/g FW) [2]: 10.9 (±1.0) nmol/g FW
- ORAC (compound/trolox ratio) [10]: 1.4 ± 0.0

SMILES: CN(C)c1nc2c(NCc3ccco3)ncnc2n1C1CCCCO1 (stereo not drawn) [Compound 80, 6-Furfurylamino-8-dimethylamino-9-(tetrahydropyran-2-yl)-9H-purine]
- MDA (nmol/g FW) [2]: 11.3 (±0.9) nmol/g FW
- ORAC (compound/trolox ratio) [10]: 2.2 ± 0.1

SMILES: C=CCNc1nc2c(NCc3ccco3)ncnc2n1C1CCCCO1 (stereo not drawn) [Compound 100, 8-Allylamino-6-furfurylamino-9-(tetrahydropyran-2-yl)-9H-purine]
- MDA (nmol/g FW) [2]: 10.2 (±1.1) nmol/g FW
- ORAC (compound/trolox ratio) [10]: 32.4 ± 3.2

SMILES: Nc1nc2c(NCc3ccco3)ncnc2n1C1CCCCO1 (stereo not drawn) [Compound 102, 6-furfurylamino-8-amino-9-(tetrahydropyran-2-yl)-9H-purine]
- MDA (nmol/g FW) [2]: 10.4 (±0.9) nmol/g FW
- ORAC (compound/trolox ratio) [10]: 4.5 ± 0.1

SMILES: CC(C)=CCNc1nc(Cl)nc2c1nc(N)n2C1CCCCO1 (stereo not drawn) [Compound 107, 8-Amino-6-(3-methylbut-2-en-1-ylamino)-chloro-9-(tetrahydropyran-2-yl)-9H-purine]
- MDA (nmol/g FW) [2]: 10.5 (±0.5) nmol/g FW
- ORAC (compound/trolox ratio) [10]: 24.4 ± 1.5

SMILES: NCCNc1nc2c(NCc3ccco3)ncnc2n1C1CCCCO1 (stereo not drawn) [Compound 170, 8-(2-Aminoethylamino)-6-furfurylamino-9-(tetrahydropyran-2-yl)-9H-purine]
- MDA (nmol/g FW) [2]: 10.4 (±0.7) nmol/g FW
- ORAC (compound/trolox ratio) [10]: 181.3 ± 5.2

SMILES: c1coc(CNc2ncnc3c2ncn3C2CCCCO2)c1 (stereo not drawn) [KTHP, kinetin-9-tetrahydropyranyl, reference compound]
- SENESCENT CELLS (%) HDF25 ([11]; human diploid fibroblasts passage 25, beta-galactosidase staining): 3%
- SENESCENT CELLS (%) HDF45 ([11]; human diploid fibroblasts passage 45, beta-galactosidase staining): 4%
- SENESCENT CELLS (%) HDF80 ([11]; human diploid fibroblasts passage 80, beta-galactosidase staining): 26%
- ORAC (compound/trolox ratio) [10]: 0.6 ± 0.1
